Experimental data: patent US9175045B2, “Peptidomimetic macrocycles” (Aileron Therapeutics, Inc., priority 2008, dated 2015)
Numbered stars: 1 amine (or outer) side, 2 acyl side, 3 side chain; on linkers, the order of the positions; unused ones are H or OH. Bridge positions count the residues as written; N and C are the ends. Square brackets hold non-standard residues; d marks the D form. Peptide text beside a SMILES is read from it. * marks the point of attachment. ξ: configuration not given here. ξαMeNle(6-ylidene) = CC(CCCC=[*:3])(N[*:1])C(=O)[*:2]; S5 = C=CCCC[C@](C)(N)C(=O)O; Nle = CCCC[C@H](N)C(=O)O; Aib = CC(C)(N)C(=O)O; Propionyl = CCC(=O)*

Assays:
[1] = test system: Jurkat cell line; type: cell-based; conditions: for EC50: 24 h
Experimental: Jurkat cell line (Clone E6-1, ATCC catalog #TIB-152) is grown in specific serum-supplemented media (RPMI-1640, Invitrogen catalog #22400) as recommended by ATCC. A day prior to the initiation of the study, cells are split at optimal cell density (2×10^5-5×10^5 cells/ml) to assure actively dividing cells. The next day, cells are washed twice in serum-free Opti-MEM media (Invitrogen, Catalog #51985) and cells are then plated at optimal cell density (10,000 cells/well) in 50 μl Opti-MEM media or Opti-MEM supplemented with 2% or 10% human serum (Bioreclamation, catalog #HMSRM) in 96-well white tissue culture plate (Nunc, catalog #136102).
For serum free experiment, crosslinked polypeptides are diluted from 2 mM stocks (100% DMSO) in sterile water to prepare 400 μM working solutions. The crosslinked polypeptides and controls are diluted 10-fold first and then serially two-fold diluted in Opti-MEM in dosing plates to provide concentrations of between 1.2 and 40 μM. 50 μl of each dilution is then added to the appropriate wells of the test plate to achieve final concentrations of the polypeptides equal to between 0.6 to 20 μM. For studies using Opti-MEM supplemented with human serum (Bioreclamation, catalog #HMSRM), crosslinked polypeptides are diluted from 10 mM stocks (100% DMSO) in sterile water to prepare 2 mM working solutions. The crosslinked polypeptides and controls are diluted 10-fold first and then serially two-fold diluted in Opti-MEM in the presence of 2% or 10% of human serum to provide concentrations of the polypeptides equal to between 6.25 to 200 μM in dosing plates. 50 μl of each dilution is then added to the appropriate wells of the test plate to achieve final concentrations of the polypeptides equal to between 3.125 to 100 μM. Controls included wells without polypeptides containing the same concentration of DMSO as the wells containing the macrocycles, wells containing 0.1% Triton X-100 and wells containing no cells. Plates are incubated for 24 hours at 37° C. in humidified 5% CO2 atmosphere.
At the end of the incubation period, CellTiter-Glo assay is performed according to manufacturer's instructions (Promega, catalog #G7573) and luminescence is measured using Synergy HT Plate reader (BioTek). Luminescence correlates with viability. A reduction in viability reflects the ability of the test compounds to induce programmed cell death via BAX and BAK.

[2] = target: human serum proteins; assay: Apparent affinity to human serum proteins (Kd*) by EC50 shift analysis; type: in vitro ADME; conditions: nonlinear regression of EC50 shift with serum, n = 1, P = 700 μM for 100% serum
Source text: The measurement of apparent Kd values for serum protein by EC50 shift analysis provides a simple and rapid means of quantifying the propensity of experimental compounds to bind HSA and other serum proteins. A linear relationship exists between the apparent EC50 in the presence of serum protein (EC′50) and the amount of serum protein added to an in vitro assay. This relationship is defined by the binding affinity of the compound for serum proteins, expressed as Kd*. This term is an experimentally determined, apparent dissociation constant that may result from the cumulative effects of multiple, experimentally indistinguishable, binding events. The form of this relationship is presented here in Eq. 0.3, and its derivation can be found in Copeland et al, Biorg. Med. Chem. Lett. 2004, 14:2309-2312. [formula] A significant proportion of serum protein binding can be ascribed to drug interactions with HSA, due to the very high concentration of this protein in serum (35-50 g/L or 530-758 μM). To calculate the Kd value for these compounds we have assumed that the shift in EC50 upon protein addition can be ascribed fully to the HSA present in the added serum, where P is 700 μM for 100% serum, P is 70 μM for 10% serum, etc. We further made the simplifying assumption that all of the compounds bind HSA with a 1:1 stoichiometry, so that the term n in Eq. (0.3) is fixed at unity. With these parameters in place we calculated the Kd* value for each stapled peptide from the changes in EC50 values with increasing serum (and serum protein) concentrations by nonlinear regression analysis of Eq. 0.3 using Mathematica 4.1 (Wolfram Research, Inc., www.wolfram.com). EC′50 values in whole blood are estimated by setting P in Eq. 0.3 to 700 μM [HSA].

[3] = target: T1, human serum proteins (binding ascribed fully to human serum albumin, HSA) (human, UniProt P02768 25-609); assay: cell-based or functional assay
[4] = target: T1, human serum proteins (binding ascribed …); assay: apparent Kd* by EC50 shift analysis: Jurkat viability EC50 at 0, 2 and 10% human serum, fit assuming 1:1 binding to HSA

T1 sequence (P02768 25-609 limits assumed): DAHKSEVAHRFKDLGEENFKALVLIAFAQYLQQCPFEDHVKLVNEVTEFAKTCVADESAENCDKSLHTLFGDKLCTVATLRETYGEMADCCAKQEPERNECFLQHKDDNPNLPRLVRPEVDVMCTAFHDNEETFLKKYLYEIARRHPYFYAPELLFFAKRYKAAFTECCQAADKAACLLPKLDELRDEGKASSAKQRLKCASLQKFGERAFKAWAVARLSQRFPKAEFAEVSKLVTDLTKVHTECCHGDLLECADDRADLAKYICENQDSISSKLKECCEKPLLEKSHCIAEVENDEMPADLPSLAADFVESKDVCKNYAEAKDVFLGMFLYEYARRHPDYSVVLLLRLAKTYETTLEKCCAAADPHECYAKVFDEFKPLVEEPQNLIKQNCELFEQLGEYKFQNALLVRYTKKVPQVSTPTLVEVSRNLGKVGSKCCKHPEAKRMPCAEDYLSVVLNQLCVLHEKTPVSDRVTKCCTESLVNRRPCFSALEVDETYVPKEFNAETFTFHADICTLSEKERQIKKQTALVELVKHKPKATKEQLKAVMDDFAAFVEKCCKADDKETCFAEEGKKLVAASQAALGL

| Molecule | EC50 [1] | Kd [2] | efficacy in serum-free media and in the presence of serum ([1]; statement in words) | 2% serum EC50 (Jurkat cell viability, CellTiter-Glo) [3] | 10% serum EC50 (Jurkat cell viability, CellTiter-Glo) [3] | Kd [4] |
| --- | --- | --- | --- | --- | --- | --- |
| CCC(=O)N[C@@H](CCCNC(=N)N)C(=O)N[C@@H](CC(N)=O)C(=O)N[C@H](C(=O)N[C@@H](C)C(=O)N[C@@H](CCCNC(=N)N)C(=O)N[C@@H](Cc1c[nH]cn1)C(=O)N[C@@H](CC(C)C)C(=O)N[C@@H](C)C(=O)NC1(C)CCCC=CCCCC(C)(C(=O)N[C@@H](Cc2ccccc2)C(=O)N[C@@H](C)C(=O)N[C@@H](CCCNC(=N)N)C(=O)N[C@@H](CO)C(=O)N[C@H](C(N)=O)[C@@H](C)CC)NC(=O)[C@H](CC(=O)O)NC(=O)C(C)(C)NC(=O)[C@H](C(C)C)NC1=O)[C@@H](C)CC (stereo partly drawn) [Compound 7, Pr-RNIARHLA$VAibD$FARSI-NH2] (Propionyl-RNIARHLA[ξαMeNle(6-ylidene)]V[Aib]D[ξαMeNle(6-ylidene)]FARSI-NH2; staple 9-13) | 2200 nM | 1100 nM | – | – | – | – |
| CC[C@H](C)[C@H](NC(=O)[C@H](CCCNC(=N)N)NC(=O)[C@H](CCCNC(=N)N)NC(=O)[C@H](CCCNC(=N)N)NC(=O)[C@H](CC(C)C)NC(=O)[C@H](CCCNC(=N)N)NC(=O)[C@H](CCC(=O)O)NC(C)=O)C(=O)NC1(C)CCCC=CCCCC(C)(C(=O)N[C@@H](Cc2c[nH]cn2)C(=O)N[C@@H](Cc2c[nH]cn2)C(=O)N[C@@H](CO)C(=O)N[C@H](C(N)=O)[C@@H](C)O)NC(=O)[C@H](CCCNC(=N)N)NC(=O)[C@H](CS)NC(=O)[C@H](CC(C)C)NC1=O (stereo partly drawn) [Compound 17, Ac-ERLRRRI$LCR$HHST-NH2] (Ac-ERLRRRI[ξαMeNle(6-ylidene)]LCR[ξαMeNle(6-ylidene)]HHST-NH2; staple 8-12) | 12000 nM | < 100 nM | high efficacy in serum-free media, which is substantially reduced in the presence of serum | – | – | – |
| CCCC[C@H](NC(=O)C1(C)CCCC=CCCCC(C)(NC(=O)[C@H](C)NC(=O)[C@H](CC(C)C)NC(=O)[C@H](Cc2c[nH]cn2)NC(=O)[C@H](CCCNC(=N)N)NC(=O)[C@H](C)NC(=O)[C@@H](NC(=O)[C@H](CC(N)=O)NC(=O)[C@H](CCCNC(=N)N)NC(=O)CC)[C@@H](C)CC)C(=O)N[C@@H](C(C)C)C(=O)NCC(=O)N[C@@H](CC(=O)O)C(=O)N1)C(=O)NC(C)(C)C(=O)N[C@@H](CCCNC(=N)N)C(=O)N[C@@H](CO)C(=O)N[C@H](C(N)=O)[C@@H](C)CC (stereo partly drawn) [Compound 8, Pr-RNIARHLA$VGD$NleAibRSI-NH2] (Propionyl-RNIARHLA[ξαMeNle(6-ylidene)]VGD[ξαMeNle(6-ylidene)][Nle][Aib]RSI-NH2; staple 9-13) | 2400 nM | 2300 nM | – | – | – | – |
| CC[C@H](C)[C@H](NC(=O)[C@H](CCCNC(=N)N)NC(=O)[C@H](CCCNC(=N)N)NC(=O)[C@H](CCCNC(=N)N)NC(=O)[C@H](CC(C)C)NC(=O)[C@H](CCCNC(=N)N)NC(=O)[C@H](CCC(=O)O)NC(C)=O)C(=O)NC1(C)CCCC=CCCCC(C)(C(=O)N[C@@H](Cc2c[nH]cn2)C(=O)N[C@@H](Cc2c[nH]cn2)C(=O)N[C@@H](CO)C(=O)N[C@H](C(N)=O)[C@@H](C)O)NC(=O)[C@H](CCCNC(=N)N)NC(=O)[C@H](C)NC(=O)[C@H](CC(C)C)NC1=O (stereo partly drawn) [Compound 18, Ac-ERLRRRI$LAR$HHST-NH2] (Ac-ERLRRRI[ξαMeNle(6-ylidene)]LAR[ξαMeNle(6-ylidene)]HHST-NH2; staple 8-12) | > 20000 nM | < 100 nM | – | – | – | – |
| CC[C@H](C)[C@H](NC(=O)[C@H](Cc1c[nH]c2ccccc12)NC(=O)[C@H](CCCNC(=N)N)NC(C)=O)C(=O)N[C@@H](C)C(=O)N[C@@H](CCC(N)=O)C(=O)N[C@@H](C)C(=O)N[C@@H](CC(C)C)C(=O)N[C@@H](CCCNC(=N)N)C(=O)NC1(C)CCCC=CCCCC(C)(C(=O)N[C@@H](Cc2ccccc2)C(=O)N[C@@H](CC(N)=O)C(=O)N[C@@H](C)C(=O)N[C@@H](Cc2ccccc2)C(=O)N[C@@H](Cc2ccc(O)cc2)C(=O)N[C@@H](C)C(=O)N[C@@H](CCCNC(=N)N)C(=O)N[C@@H](CCCNC(=N)N)C(N)=O)NC(=O)[C@H](CC(=O)O)NC(=O)CNC(=O)[C@H]([C@@H](C)CC)NC1=O (stereo partly drawn) [Compound 14, Ac-RWIAQALR$1GD$FNAFYARR-NH2] | 400 nM | 2300 nM | – | – | – | – |
| CCCC[C@H](NC(=O)C1(C)CCCC=CCCCC(C)(NC(=O)[C@H](C)NC(=O)[C@H](CC(C)C)NC(=O)[C@H](Cc2c[nH]cn2)NC(=O)[C@H](CCCNC(=N)N)NC(=O)[C@H](C)NC(=O)[C@@H](NC(=O)[C@H](CC(N)=O)NC(=O)[C@H](CCCNC(=N)N)NC(=O)CC)[C@@H](C)CC)C(=O)N[C@@H](C(C)C)C(=O)NC(C)(C)C(=O)N[C@@H](CC(=O)O)C(=O)N1)C(=O)N[C@@H](CC(=O)O)C(=O)N[C@@H](CCCNC(=N)N)C(=O)N[C@@H](CO)C(=O)N[C@H](C(N)=O)[C@@H](C)CC (stereo partly drawn) [Compound 5, Pr-RNIARHLA$VAibD$NleDRSI-NH2] (Propionyl-RNIARHLA[ξαMeNle(6-ylidene)]V[Aib]D[ξαMeNle(6-ylidene)][Nle]DRSI-NH2; staple 9-13) | 1600 nM | 200 nM | – | – | – | – |
| CCCC[C@H](NC(=O)C1(C)CCCC=CCCCC(C)(NC(=O)C(C)(C)NC(=O)[C@H](CC(C)C)NC(=O)[C@H](Cc2c[nH]cn2)NC(=O)[C@H](CCCNC(=N)N)NC(=O)[C@H](C)NC(=O)[C@@H](NC(=O)[C@H](CC(N)=O)NC(=O)[C@H](CCCNC(=N)N)NC(=O)CC)[C@@H](C)CC)C(=O)N[C@@H](C(C)C)C(=O)NC(C)(C)C(=O)N[C@@H](CC(=O)O)C(=O)N1)C(=O)N[C@@H](CC(=O)O)C(=O)N[C@@H](CCCNC(=N)N)C(=O)N[C@@H](CO)C(=O)N[C@H](C(N)=O)[C@@H](C)CC (stereo partly drawn) [Compound 6, Pr-RNIARHLAib$VAibD$NleDRSI-NH2] (Propionyl-RNIARHL[Aib][ξαMeNle(6-ylidene)]V[Aib]D[ξαMeNle(6-ylidene)][Nle]DRSI-NH2; staple 9-13) | 1000 nM | 400 nM | – | – | – | – |
| Propionyl-RNIARHLA[S5]V[Aib]D[S5]FARSI-NH2 (staple 9-13) [Compound 7 (crosslinked polypeptide derived from human BID BH3)] | – | – | – | 12400 nM | 48200 nM | 1100 nM |
| Propionyl-RNIARHLA[S5]VGD[S5][Nle][Aib]RSI-NH2 (staple 9-13) [Compound 8 (crosslinked polypeptide derived from human BID BH3)] | – | – | – | 10500 nM | 37700 nM | 2300 nM |
| Ac-DIIRNIARHLA[S5]VGD[S5][Nle]DRSI-NH2 (staple 12-16) [Compound 1 (crosslinked polypeptide derived from human BID BH3)] | – | – | – | 73900 nM | > 100000 nM | < 100 nM |
| Propionyl-RNIARHL[Aib][S5]V[Aib]D[S5][Nle]DRSI-NH2 (staple 9-13) [Compound 6 (crosslinked polypeptide derived from human BID BH3)] | – | – | – | 10100 nM | 49700 nM | 400 nM |
| Propionyl-RNIARHLA[S5]V[Aib]D[S5][Nle]DRSI-NH2 (staple 9-13) [Compound 5 (crosslinked polypeptide derived from human BID BH3)] | – | – | – | 16700 nM | 63000 nM | 200 nM |
